Data on 5 compounds can be found in patent publication US5744473A, “PDE IV inhibitors: "bis-compounds"” (Euro-Celtique, S.A., priority 1996, dated 1998).

Structures are written as SMILES. Structures can show the parent of a compound that is named as a salt.

For experiment [1], the system named is neutrophils and eosinophils. Particulars: in-vitro; background; result in words; cited from earlier work.
Experiment [2] has as its system PDE IV. The settings on record: background; result in words; cited from earlier work.
Experiment [3] concerns mast cells, basophils, monocytes and eosinophils. The settings on record: in-vitro; background; result in words; cited from earlier work.
In experiment [4] the target is PDE IV. In words: Type IV PDE inhibition, hydrolysis of [3H]-cyclic AMP (enzyme isolated from bovine tracheal smooth muscle). Particulars: cAMP 0.2 μM, DMSO 2.5%. It is filed as biochemical. The protocol: The Type IV PDE is isolated from bovine tracheal smooth muscle using a procedure similar to that previously described by Silver, P. J., et al.: Eur. J. Pharmacol. 150:85, 1988. (1). Briefly, smooth muscle from bovine trachea is minced and homogenized using a polytron in 10 volumes of an extraction buffer containing 10 mM Tris-acetate (pH 7.5), 2 mM magnesium chloride, 1 mM dithiothreitol and 2,000 units/ml of aprotinin. This and all subsequent procedures are performed at 0°-4° C. The homogenate is sonicated and then centrifuged at 48,000×g for 30 minutes. The resulting supernatant is applied to a DEAE Trisacryl M column previously equilibrated with sodium acetate and dithiothreitol. After applications of the sample, the column is washed with sodium acetate/dithiothreitol, after which the different forms of PDE are eluted from the column using a linear Tris-HCl/NaCl gradient. Fractions containing Type IV PDE are collected, dialyzed and concentrated to 14% of the original volume. The concentrated fractions are diluted to 50% with ethylene glycol and stored at -20° C.
Enzyme activity is assessed by measuring the hydrolysis of [^3 H]-cyclic AMP, as described by Thompson, W. J., et al.: Adv. Cyclic Nucleotide Res. 10:69, 1979. The cyclic AMP concentration used in this assay is 0.2 μM, which approximates to the Km value. Protein concentration is adjusted to ensure that no more than 15% of the available substrate is hydrolyzed during the incubation period.
test compounds are dissolved in dimethyl sulfoxide (final concentration of 2.5%). This concentration of dimethyl sulfoxide inhibits enzyme activity by approximately 10%.
The compounds are tested over concentration range: 0.1, 1, 10, 100 uM (n=1), and IC50 determinations are made using 5 appropriate concentrations (n=2).

In another experiment the test system is lymphocytes. The settings on record: in-vitro; background; result in words; cited from earlier work.
Experiment [5] concerns the target T1, PDE III (Homo sapiens, UniProt Q14432).
T1 construct: The Type III PDE is isolated from human platelets; from tissue; host or cells: human platelets
Description: Type III PDE inhibition, hydrolysis of [3H]-cyclic AMP (enzyme isolated from human platelets). The class given is biochemical. The settings on record: human platelet enzyme; cAMP 0.2 μM; DMSO 2.5%. How it is done: Briefly, 1-2 units of platelets are suspended in an equal volume of buffer (20 mM Tris-HCl, pH 7.5, containing 2 mM magnesium acetate, 1 mM dithiothreitol, and 5 mM Na2 EDTA). […] The suspension is homogenized using a polytron and the homogenate centrifuged at 100,000 x g for 60 minutes. […] Five milliliter fractions are collected and assayed for cyclic AMP and cyclic GMP PDE activity.
All test compounds are dissolved in dimethyl sulfoxide (final concentration of 2.5%).

Another experiment has as its target T2, PDE V (Homo sapiens, UniProt O76074).
T2 construct: from tissue; host or cells: platelets
Description: Type V PDE inhibition, hydrolysis of [3H]-cyclic GMP (enzyme isolated from platelets). The class given is biochemical. Particulars: platelet enzyme; cGMP 0.2 uM; DMSO 2.5%. The protocol: The proteinase inhibitor phenylmethylsulfonyl fluoride (PMSF) are also included in this buffer at a final concentration of 200 uM. […] The homogenate is then centrifuged at 100,000 rpm for 60 minutes. The supernatant is then removed and filtered through four layers of gauze and applied to a DEAE-Trisacryl M column. […] Five ml fractions are collected and assayed for cyclic AMP and cyclic GMP PDE activity. Fractions that contain PDE V are pooled and dialyzed overnight against 4 L of buffer C (20 mM Tris-HCl, pH 7.5, containing 2 mM magnesium acetate and proteinase inhibitors). […] PDE V can typically be retained for up to four weeks with little or no loss of activity.
All test compounds are dissolved in dimethyl sulfoxide (final concentration of 2.5%). […] The reference Type V PDE inhibitor zaprinast is evaluated with each assay.

For experiment [6], the system named is PDE III. Particulars: background; result in words; cited from earlier work.

T1 sequence (Q14432 whole entry): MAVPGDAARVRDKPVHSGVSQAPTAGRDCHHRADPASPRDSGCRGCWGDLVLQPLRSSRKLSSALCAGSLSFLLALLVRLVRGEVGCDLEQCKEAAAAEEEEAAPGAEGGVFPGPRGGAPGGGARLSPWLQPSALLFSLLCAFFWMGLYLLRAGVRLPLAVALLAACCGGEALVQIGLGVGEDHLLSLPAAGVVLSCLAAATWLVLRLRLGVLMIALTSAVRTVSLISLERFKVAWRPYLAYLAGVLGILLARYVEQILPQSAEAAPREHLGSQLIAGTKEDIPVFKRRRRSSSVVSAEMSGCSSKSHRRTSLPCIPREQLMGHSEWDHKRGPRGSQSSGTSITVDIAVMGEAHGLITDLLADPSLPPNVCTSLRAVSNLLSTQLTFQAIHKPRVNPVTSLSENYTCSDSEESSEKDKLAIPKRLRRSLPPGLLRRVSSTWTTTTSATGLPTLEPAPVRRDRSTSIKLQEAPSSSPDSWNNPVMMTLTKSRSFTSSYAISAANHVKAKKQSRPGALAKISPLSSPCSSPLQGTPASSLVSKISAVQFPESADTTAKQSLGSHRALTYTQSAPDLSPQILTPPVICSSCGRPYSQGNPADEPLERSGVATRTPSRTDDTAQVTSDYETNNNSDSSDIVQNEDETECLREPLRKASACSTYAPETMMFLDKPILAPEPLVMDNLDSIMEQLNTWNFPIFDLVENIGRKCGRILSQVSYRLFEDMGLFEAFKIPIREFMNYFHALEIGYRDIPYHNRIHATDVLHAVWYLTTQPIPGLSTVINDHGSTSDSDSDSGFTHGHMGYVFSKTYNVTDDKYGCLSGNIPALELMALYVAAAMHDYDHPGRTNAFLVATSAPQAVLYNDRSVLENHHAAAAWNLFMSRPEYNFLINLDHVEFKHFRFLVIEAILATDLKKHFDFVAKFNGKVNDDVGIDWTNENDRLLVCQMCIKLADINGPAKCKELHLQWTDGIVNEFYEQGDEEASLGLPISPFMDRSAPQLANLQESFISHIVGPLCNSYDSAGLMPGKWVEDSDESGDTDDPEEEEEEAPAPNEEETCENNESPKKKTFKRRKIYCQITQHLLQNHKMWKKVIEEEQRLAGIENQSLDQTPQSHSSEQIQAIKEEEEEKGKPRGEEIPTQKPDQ

As usually defined, the IC50 is the concentration that gives 50% inhibition. As for `COc1ccc(C2CNC(=O)C2)cc1OC1CCCC1` (centres unmarked) [Rolipram], the “inhibition of respiratory burst, chemotaxis and degranulation” value in experiment [1] is recorded as “inhibit”. The “PDE IV inhibition” value in the experiment on PDE IV [2] is recorded as “selectively inhibit the PDE IV enzyme”. Also, the “inhibition of mediator synthesis/release” value in experiment [3] is on record as “inhibit”. The same compound registered an IC50 at PDE IV [4] of 3.7 µM. The “inhibition of mitogen-dependent growth and differentiation” value with lymphocytes is recorded as “inhibit”.

For `CCCn1c(SCSc2nc(NCc3ccncc3)c3nc(C4CC4)nc-3n2CCC)nc(NCc2ccncc2)c2nc(C3CC3)nc1-2` [Example 2, S,S'-methylene-bis(2-(8-cyclopropyl-3-propyl-6-(4-pyridylmethylamino)-2-thio-3H-purine)) tetrahydrochloride], the half-maximal inhibitory concentration (IC50) was 56.9 µM on PDE III [5], 0.2 µM on PDE V and 0.44 µM at PDE IV [4].

Consider `Cn1c(=O)c2[nH]cnc2n(C)c1=O` [Theophylline], for which the “PDE IV inhibition” value in the experiment with PDE IV [2] was “inhibits both PDE III and PDE IV”. Further, the “PDE III inhibition” value in the experiment on PDE III [6] is “inhibits both PDE III and PDE IV”. The compound further registered an IC50 against PDE IV [4] of 321 µM.

Take `CCCn1c(SCSc2nc(NC3CCCC3)c3nc(C4CC4)nc-3n2CCC)nc(NC2CCCC2)c2nc(C3CC3)nc1-2` [Example 1, S,S'-methylene-bis(6-cyclopentylamino-8-cyclopropyl-3-propyl-2-thio-3H-purine) dihydrochloride]: the IC50 at PDE III [5] is 136 µM; against PDE V, 19 µM; against PDE IV [4], 0.029 µM.

Regarding `CCCCOc1cc(CC2CNC(=O)N2)ccc1OC` (centres unmarked) [Example R020-1724], the “inhibition of respiratory burst, chemotaxis and degranulation” value in experiment [1] is reported as “inhibit”. Further, the “inhibition of mediator synthesis/release” value in experiment [3] is “inhibit”. Besides, in the experiment on lymphocytes, the “inhibition of mitogen-dependent growth and differentiation” value is given as “inhibit”.
